Starred links: 1 amine or outer side, 2 acyl side, 3 side chain; linkers in the order of their positions; H or OH if unused. Positions of bridges follow the written chain, without caps; N, C: chain ends. Non-standard residues stand in square brackets, D forms with d. Residues, ends and D or L forms follow the SMILES beside them. No end group written: not given here. *: point of attachment. X2 = CN(/C(=C\c1ccc(O)cc1)C(=O)[*:2])[*:1]; X1 = CCCCCc1ccccc1CCC(=O)*
Key:
[1] = test system: bradykinin induced bronchoconstriction; conditions: asthmatics; cited from earlier work
GABAA receptors = conditions: FIG. 10
Procedure: (§1) (FIG. 9.) To determine if the mechanism of propofol's relaxation of a tachykinin response was mediated by GABAA receptors, the ability of an antagonist of GABAA receptors should inhibit propofol's response was evaluated. […] (FIG. 10.)

[2] = test system: substance P contraction, guinea pig tracheal rings; assay: Relaxation of substance P-induced contraction in guinea pig tracheal rings; assay type: cell-based; conditions: FIG. 2, FIG. 3E-F, FIG. 8
Procedure: (§2) Substance P is an endogenous tachykinin released in airways by C fibers during irritation of the airway.
(§3) Propofol is known to have preferential protective airway effects during intubation compared to other intravenous anesthetics (3, 4). To determine if two other commonly used intravenous anesthetics have similar protective airway effects on contractile challenges, etomidate and ketamine were evaluated to determine their ability to relax airway smooth muscle contraction induced by NANC nerve stimulation (FIGS. 3A and B), cholinergic nerve stimulation (FIGS. 3C and D), and exogenous addition of substance P (FIGS. 3E and F) to isolated guinea pig tracheal rings in organ baths.
Propofol's effect as an anesthetic is modulated by an allosteric potentiation of GABA at GABAA receptors in the brain. However, we are unaware of any report that GABAA receptors have been found on airway smooth muscle.

[3] = test system: NANC contractions, epithelium-denuded guinea pig tracheal rings; assay: Relaxation of NANC (C fiber, neurally liberated tachykinin) contractions in guinea pig tracheal rings; assay type: cell-based; conditions: clinically relevant concentrations, FIG. 2, FIG. 3A-B
Procedure: as §2, §3

[4] = test system: cholinergic nerve mediated contractions, guinea pig tracheal rings; assay: Relaxation of cholinergic nerve mediated contractions in guinea pig tracheal rings; assay type: cell-based; conditions: clinically relevant concentrations, FIG. 1, FIG. 3C-D
Procedure: To distinguish between the two possibilities, intravenous anesthetics were evaluated for their effects on attenuating bronchoconstriction induced by activation of the cholinergic nerves (liberating acetylcholine). […] (FIG. 1.)
as §3

guinea pig airway rings = conditions: cited from earlier work
[5] = test system: substance P contraction, human tracheal rings; assay: Substance P contraction of human tracheal rings in organ baths and its relaxation; assay type: cell-based; conditions: human tracheal rings in organ baths; for relaxation of substance P contraction in human tracheal rings: cumulative concentrations, FIG. 5, FIG. 9
Procedure: as §1

[6] = test system: methacholine, histamine-induced (neural component) or vagal nerve-induced bronchoconstriction; conditions: neural component of histamine-induced, or vagal nerve-induced bronchoconstriction; cited from earlier work
[7] = test system: histamine induced contractions, guinea pig tracheal rings; conditions: within clinically relevant concentrations, FIG. 4
Procedure: (§5) To determine if propofol and thiopental have the ability to relax histamine or endothelial induced contractions, propofol and thiopental were evaluated at clinical and supra-clinical concentrations to determine their ability to relax histamine or endothelin-1 induced contractions in guinea pig tracheal rings.

[8] = test system: permeabilized canine tracheal smooth muscle cells; conditions: absence or presence of muscarinic receptor activation, propofol 270 μM; cited from earlier work
[9] = test system: L-type calcium channels, intracellular calcium changes, inositol phosphate synthesis in airway smooth muscle; conditions: above clinically achieved concentrations; cited from earlier work
[10] = test system: endothelin-1 induced contractions, guinea pig tracheal rings; conditions: within clinically relevant concentrations, FIG. 4
Procedure: as §5

[11] = test system: methacholine induced bronchoconstriction; conditions: sheep; delivery via the bronchial artery; cited from earlier work
[12] = test system: contractile responses from acetylcholine, histamine, and endothelin in airway tissues; conditions: airway tissues from humans and animal models; cited from earlier work
[13] = test system: acetylcholine-induced contractions, isolated rings of guinea pig trachea; conditions: isolated guinea pig tracheal rings; clinically significant/relevant concentrations; FIG. 1
Excerpt: Intravenous anesthetics were compared for their ability to relax airway smooth muscle contractions in isolated rings of guinea pig trachea in response to acetylcholine.

[14] = test system: NK1-induced contraction, guinea pig tracheal rings; conditions: guinea pig tracheal rings stimulated with acetyl-substance P; FIG. 6A
Excerpt: (§4) Guinea pig tracheal rings stimulated with acetyl-substance P to produce an NK1-induced contraction (FIG. 6A) and with neurokinin A to produce an NK2-induced contraction (FIG. 6B).

[15] = test system: NK2-induced contraction, guinea pig tracheal rings; conditions: guinea pig tracheal rings stimulated with neurokinin A; FIG. 6B
Excerpt: as §4

[16] = test system: vagal nerve induced bronchospasm; conditions: sheep; delivery via the bronchial artery; cited from earlier work

Molecule: CCCCCc1ccccc1CCC(=O)NC1C(=O)N(C)/C(=C\c2ccc(O)cc2)C(=O)NC(CC(C)C)C(=O)NC(Cc2ccccc2)C(=O)NC(C(C)O)C(=O)NC(CC(N)=O)C(=O)NC(CO)C(=O)OC1C (stereo not shown) [FK224] (X1-T[X2]LFTNS; ester 1-C; configuration not given here)
- effect on bradykinin induced bronchoconstriction [1]: attenuated bradykinin induced bronchoconstriction

Molecule: COc1ccc(-c2ccc(=N)n(CCCC(=O)O)n2)cc1 [Gabazine]
- reversal of propofol mediated relaxation of a substance P contraction (GABAA receptors): able to reverse propofol mediated relaxation

Molecule: CCOC(=O)c1cncn1[C@H](C)c1ccccc1 [etomidate]
- attenuation/relaxation of substance P (exogenous tachykinin) contraction [2]: failed to relax
- attenuation/relaxation of NANC contractions (neurally liberated tachykinins) [3]: failed to relax
- relaxation of cholinergic nerve mediated contractions [4]: failed to relax

Molecule: CNC1(c2ccccc2Cl)CCCCC1=O (stereo not shown) [ketamine]
- attenuation/relaxation of substance P (exogenous tachykinin) contraction [2]: failed to relax
- attenuation/relaxation of NANC contractions (neurally liberated tachykinins) [3]: failed to relax
- relaxation of cholinergic nerve mediated contractions [4]: failed to relax

Molecule: NCc1cc(=O)[nH]o1 [muscimol]
- effect on acetylcholine-induced contraction (guinea pig airway rings): failed to show an effect
- effect on basal tone (guinea pig airway rings): failed to show an effect
- attenuation/relaxation of substance P (exogenous tachykinin) contraction [2]: dose-dependently relaxed
- relaxation of substance P contraction in human tracheal rings [5]: dose dependently relaxed

Molecule: CC(C)c1cccc(C(C)C)c1O [propofol, 2,6-diisopropylphenol]
- propofol concentration attenuating bronchoconstriction in dogs [6]: 20 mg/mL
- relaxation of histamine induced contraction [7]: neither anesthetic effected the spontaneous relaxation
- attenuation/relaxation of substance P (exogenous tachykinin) contraction [2]: more effective than thiopental
- relaxation of substance P contraction in human tracheal rings [5]: dose-dependently relaxed
- attenuation/relaxation of NANC contractions (neurally liberated tachykinins) [3]: more effective than thiopental
- calcium sensitivity [8]: not effected
- propofol concentration needed for effects on L-type calcium channels, intracellular calcium or inositol phosphate signaling [9]: > 100 µM
- relaxation of endothelin-1 induced contraction [10]: neither anesthetic effected the spontaneous relaxation
- relaxation of cholinergic nerve mediated contractions [4]: failed to relax
- propofol dose attenuating methacholine induced bronchoconstriction [11]: 3 mg/min
- propofol concentration attenuating contractile responses from acetylcholine, histamine, endothelin [12]: 100 to 300 µM
- relaxation of acetylcholine-induced contractions [13]: without effect
- relaxation of NK1-induced contraction [14]: much less effective
- relaxation of NK2-induced contraction [15]: significantly relaxed
- propofol dose attenuating vagal nerve induced bronchospasm [16]: 0.3 mg/min

Molecule: CCCC(C)C1(CC)C(=O)NC(=S)NC1=O (stereo not shown) [thiopental]
- relaxation of histamine induced contraction [7]: neither anesthetic effected the spontaneous relaxation
- relaxation of endothelin-1 induced contraction [10]: neither anesthetic effected the spontaneous relaxation
- relaxation of acetylcholine-induced contractions [13]: dose-dependently relaxed

Molecule: Substance P (RPKPQQFFGLM-NH2; ends and bridges not checked; UniProt P20366 58-68, looked up) [endogenous tachykinin released in airways by C fibers during irritation of the airway]
- contraction of human tracheal rings ([5]; FIG. 5): dose-dependently contracted
